Ki data for 33 compounds are collected here from patent US9663513B2, “Pyrimidine PDE10 inhibitors” (Merck Sharp & Dohme Corp., priority 2012, dated 2017).

Structures are written as SMILES.

Sequence of human PDE10A2 (Q9Y233 267-1055): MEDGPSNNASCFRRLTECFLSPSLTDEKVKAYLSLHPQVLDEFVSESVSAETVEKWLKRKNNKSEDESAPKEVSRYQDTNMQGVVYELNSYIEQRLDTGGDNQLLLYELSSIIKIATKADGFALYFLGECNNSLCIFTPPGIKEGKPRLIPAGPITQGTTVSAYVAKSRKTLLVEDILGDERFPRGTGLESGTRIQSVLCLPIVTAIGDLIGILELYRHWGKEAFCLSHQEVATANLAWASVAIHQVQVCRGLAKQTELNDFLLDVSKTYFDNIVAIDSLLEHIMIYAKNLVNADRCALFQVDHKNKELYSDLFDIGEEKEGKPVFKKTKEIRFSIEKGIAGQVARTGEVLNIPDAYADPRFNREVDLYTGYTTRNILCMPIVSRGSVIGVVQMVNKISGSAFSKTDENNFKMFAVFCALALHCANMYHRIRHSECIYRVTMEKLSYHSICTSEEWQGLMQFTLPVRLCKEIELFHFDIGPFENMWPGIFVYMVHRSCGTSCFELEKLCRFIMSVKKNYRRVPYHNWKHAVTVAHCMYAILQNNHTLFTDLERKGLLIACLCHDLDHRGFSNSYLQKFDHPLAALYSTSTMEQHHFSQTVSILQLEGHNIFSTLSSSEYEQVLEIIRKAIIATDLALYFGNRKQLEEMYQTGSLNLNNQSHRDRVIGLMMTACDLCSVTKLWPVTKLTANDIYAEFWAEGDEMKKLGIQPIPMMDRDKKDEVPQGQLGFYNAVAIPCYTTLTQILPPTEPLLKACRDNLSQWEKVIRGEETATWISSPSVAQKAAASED

This assay concerns the target human PDE10A2 (Homo sapiens (Human), UniProt Q9Y233). Briefly: PDE10 fluorescence polarization (IMAP FP) inhibition assay. The class given is biochemical. Conditions: human PDE10A2 from transfected AD293 cells; FAM-labeled cAMP 50 nM; apparent inhibition constant; read-out: PDE10A Ki. The procedure, abridged: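 Cytoplasmic lysate of AD293 cells transiently expressing human PDE10A2 (enzyme level giving 20% conversion) incubated with 50 nM FAM-cAMP in pH 7.2 Tris/MgCl2 buffer, 30 min at room temperature. IMAP binding solution added, FP read after ≥1 h; 10-point 3-fold compound titrations fitted to a four-parameter equation.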
Consider `Cc1ccnc(-c2cnc(C)nc2OC[C@H]2C[C@@H]2c2ccc3ccccc3n2)c1` [Example 128, 2-((1S,2S)-2-((2-methyl-5-(4-methylpyridin-2-yl)pyrimidin-4-yloxy)methyl)cyclopropyl)quinoline], for which the Ki came to 0.12 nM.

With `Cc1ncc(-c2ccc3ncc(C)n3c2)c(OC[C@H]2C[C@@H]2c2ccc3ccccc3n2)n1` [Example 129, 2-((1S,2S)-2-((2-methyl-5-(3-methylimidazo[1,2-a]pyridin-6-yl)pyrimidin-4-yloxy)methyl)cyclopropyl)quinoline], the Ki amounted to 0.02 nM.

On to `Cc1ccc([C@H]2C[C@@H]2COc2nc(C)ncc2-c2ccc3ncc(C)n3c2)nc1` [Example 130, 3-methyl-6-(2-methyl-4-(((1S,2S)-2-(5-methylpyridin-2-yl)cyclopropyl)methoxy)pyrimidin-5-yl)imidazo[1,2-a]pyridine], for which the Ki amounted to 0.39 nM.

On to `COc1cc(-c2cnc(C)nc2OC[C@H]2C[C@@H]2c2ccc3ccccc3n2)cc2nccn12` [Example 131, 2-((1S,2S)-2-((5-(5-methoxyimidazo[1,2-a]pyridin-7-yl)-2-methylpyrimidin-4-yloxy)methyl)cyclopropyl)quinoline], for which the Ki was found to be 0.04 nM.

On to `COc1cc(-c2cnc(C)nc2OC[C@H]2C[C@@H]2c2ccc(C)cn2)cc2nccn12` [Example 132, 5-methoxy-7-(2-methyl-4-(((1S,2S)-2-(5-methylpyridin-2-yl)cyclopropyl)methoxy)pyrimidin-5-yl)imidazo[1,2-a]pyridine], for which the Ki stood at 0.81 nM.

As to `Cc1ncc(-c2cnc3ccccn23)c(OC[C@H]2C[C@@H]2c2ccc3ccccc3n2)n1` [Example 133, 2-((1S,2S)-2-((5-(imidazo[1,2-a]pyridin-3-yl)-2-methylpyrimidin-4-yloxy)methyl)cyclopropyl)quinoline], the Ki was 0.06 nM.

Regarding `Cc1ncc(-c2cccn3ccnc23)c(OC[C@H]2C[C@@H]2c2ccc3ccccc3n2)n1` [Example 134, 2-((1S,2S)-2-((5-(imidazo[1,2-a]pyridin-8-yl)-2-methylpyrimidin-4-yloxy)methyl)cyclopropyl)quinoline], the Ki came to 4.03 nM.

As to `Cc1ccc([C@H]2C[C@@H]2COc2nc(C)ncc2-c2cccn3ccnc23)nc1` [Example 135, 8-(2-methyl-4-(((1S,2S)-2-(5-methylpyridin-2-yl)cyclopropyl)methoxy)pyrimidin-5-yl)imidazo[1,2-a]pyridine], the Ki worked out at 37.3 nM.

`Cc1ncc(-c2ccc3nccn3c2)c(OC[C@H]2C[C@@H]2c2ccc3ccccc3n2)n1` [Example 136, 2-((1S,2S)-2-((5-(imidazo[1,2-a]pyridin-6-yl)-2-methylpyrimidin-4-yloxy)methyl)cyclopropyl)quinoline]: the Ki amounted to 0.04 nM.

Regarding `Cc1ccc([C@H]2C[C@@H]2COc2nc(C)ncc2-c2ccc3nccn3c2)nc1` [Example 137, 6-(2-methyl-4-(((1S,2S)-2-(5-methylpyridin-2-yl)cyclopropyl)methoxy)pyrimidin-5-yl)imidazo[1,2-a]pyridine], the Ki was found to be 0.63 nM.

With `Cc1ccc([C@H]2C[C@@H]2COc2nc(C)ncc2-c2ccc(C(C)(C)O)nc2C)nc1` [Example 138, 2-(6-Methyl-5-(2-methyl-4-(((1S,2S)-2-(5-methylpyridin-2-yl)cyclopropyl)methoxy)pyrimidin-5-yl)pyridin-2-yl)propan-2-ol], the Ki stood at 0.23 nM.

With `Cc1ccc([C@H]2C[C@@H]2COc2nc(C)ncc2-c2ccc(C(O)C(C)C)nc2)nc1` (stereo partly drawn) [Example 139, 2-methyl-1-(5-(2-methyl-4-(((1S,2S)-2-(5-methylpyridin-2-yl)cyclopropyl)methoxy)pyrimidin-5-yl)pyridin-2-yl)propan-1-ol], the Ki turned out to be 0.37 nM.

In the case of `Cc1ccc([C@H]2C[C@@H]2COc2nc(C)ncc2-c2ccc(C(O)C(C)C)nc2)nc1` (stereo partly drawn) [Example 140, 2-methyl-1-(5-(2-methyl-4-(((1S,2S)-2-(5-methylpyridin-2-yl)cyclopropyl)methoxy)pyrimidin-5-yl)pyridin-2-yl)propan-1-ol], the Ki was determined as 1.63 nM.

Regarding `Cc1ccc([C@H]2C[C@@H]2COc2nc(C)ncc2-c2ccc(C(C)O)nc2)nc1` (stereo partly drawn) [Example 141, 1-(5-(2-methyl-4-(((1S,2S)-2-(5-methylpyridin-2-yl)cyclopropyl)methoxy)pyrimidin-5-yl)pyridin-2-yl)ethanol], the Ki came to 0.24 nM.

For the compound `Cc1ccc([C@H]2C[C@@H]2COc2nc(C)ncc2-c2cnc3[nH]ncc3c2)nc1` [Example 142, 5-(2-methyl-4-(((1S,2S)-2-(5-methylpyridin-2-yl)cyclopropyl)methoxy)pyrimidin-5-yl)-1H-pyrazolo[3,4-b]pyridine], the Ki worked out at 0.37 nM.

Consider `CCC(O)c1ccc(-c2cnc(C)nc2OC[C@H]2C[C@@H]2c2ccc(C)cn2)cn1` (stereo partly drawn) [Example 143, 1-(5-(2-methyl-4-(((1S,2S)-2-(5-methylpyridin-2-yl)cyclopropyl)methoxy)pyrimidin-5-yl)pyridin-2-yl)propan-1-ol], for which the Ki is 0.16 nM.

`CCC(O)c1ccc(-c2cnc(C)nc2OC[C@H]2C[C@@H]2c2ccc(C)cn2)cn1` (stereo partly drawn) [Example 144, 1-(5-(2-methyl-4-(((1S,2S)-2-(5-methylpyridin-2-yl)cyclopropyl)methoxy)pyrimidin-5-yl)pyridin-2-yl)propan-1-ol]: the Ki was determined as 0.73 nM.

As for `Cc1ccc([C@H]2C[C@@H]2COc2nc(C)ncc2-c2ccc(C(O)C(F)(F)F)nc2)nc1` (stereo partly drawn) [Example 145, 2,2,2-trifluoro-1-(5-(2-methyl-4-(((1S,2S)-2-(5-methylpyridin-2-yl)cyclopropyl)methoxy)pyrimidin-5-yl)pyridin-2-yl)ethanol], the Ki amounted to 0.54 nM.

As to `Cc1ccc([C@H]2C[C@@H]2COc2nc(C)ncc2-c2ccc(C(O)C(F)(F)F)nc2)nc1` (stereo partly drawn) [Example 146], the Ki came to 0.25 nM.

With `Cc1ccc([C@H]2C[C@@H]2COc2nc(C)ncc2-c2ccncc2C)nc1` [Example 147, 2-methyl-4-(((1S,2S)-2-(5-methylpyridin-2-yl)cyclopropyl)methoxy)-5-(3-methylpyridin-4-yl)pyrimidine], the Ki came to 0.4 nM.

On to `Cc1ccc([C@H]2C[C@@H]2COc2nc(C)ncc2-c2ccc(C(C)O)nc2)nc1` (stereo partly drawn) [Example 148, 1-(5-(2-methyl-4-(((1S,2S)-2-(5-methylpyridin-2-yl)cyclopropyl)methoxy)pyrimidin-5-yl)pyridin-2-yl)ethanol], for which the Ki was found to be 0.98 nM.

`Cc1ccc([C@H]2C[C@@H]2COc2nc(C)ncc2-c2ccc(C(C)O)nc2)nc1` (stereo partly drawn) [Example 149, 1-(5-(2-methyl-4-(((1S,2S)-2-(5-methylpyridin-2-yl)cyclopropyl)methoxy)pyrimidin-5-yl)pyridin-2-yl)ethanol]: the Ki was determined as 0.14 nM.

Consider `COc1cnccc1-c1cnc(C)nc1OC[C@H]1C[C@@H]1c1ccc(C)cn1` [Example 150, 5-(3-methoxypyridin-4-yl)-2-methyl-4-(((1S,2S)-2-(5-methylpyridin-2-yl)cyclopropyl)methoxy)pyrimidine], for which the Ki came out at 0.47 nM.

Take `Cc1cc(-c2cnc(C)nc2OC[C@H]2C[C@@H]2c2ccc3ccccc3n2)ccn1` [Example 153, 2-((1S,2S)-2-((2-methyl-5-(2-methylpyridin-4-yl)pyrimidin-4-yloxy)methyl)cyclopropyl)quinoline]: the Ki is 0.01 nM.

Consider `Cc1ncc(-c2ccc(CO)nc2)c(OC[C@H]2C[C@@H]2c2ccc3ccccc3n2)n1` [Example 154, (5-(2-methyl-4-(((1S,2S)-2-(quinolin-2-yl)cyclopropyl)methoxy)pyrimidin-5-yl)pyridin-2-yl)methanol], for which the Ki turned out to be 0.01 nM.

As for `Cc1ncc(-c2cccnc2)c(OC[C@H]2C[C@@H]2c2ccc3ccccc3n2)n1` [Example 155, 2-((1S,2S)-2-((2-methyl-5-(pyridin-3-yl)pyrimidin-4-yloxy)methyl)cyclopropyl)quinoline], the Ki worked out at 0.01 nM.

Regarding `Cc1ncc(-c2ccc(C(F)(F)F)nc2)c(OC[C@H]2C[C@@H]2c2ccc3ccccc3n2)n1` [Example 156, 2-((1S,2S)-2-((2-methyl-5-(6-(trifluoromethyl)pyridin-3-yl)pyrimidin-4-yloxy)methyl)cyclopropyl)quinoline], the Ki came to 0.12 nM.

For `Cc1ncc(-c2ccc(C(C)(C)O)nc2)c(OC[C@H]2C[C@@H]2c2ccc3ccccc3n2)n1` [Example 157, 2-(5-(2-methyl-4-(((1S,2S)-2-(quinolin-2-yl)cyclopropyl)methoxy)pyrimidin-5-yl)pyridin-2-yl)propan-2-ol], the Ki came to 0.02 nM.

As for `Cc1cccc([C@H]2C[C@@H]2COc2nc(C)ncc2-c2cn(C)nc2C(C)O)n1` (stereo partly drawn) [Example 158, 1-(1-methyl-4-(2-methyl-4-(((1S,2S)-2-(6-methylpyridin-2-yl)cyclopropyl)methoxy)pyrimidin-5-yl)-1H-pyrazol-3-yl)ethanol], the Ki turned out to be 0.56 nM.

As for `Cc1ccnc([C@H]2C[C@@H]2COc2nc(C)ncc2-c2cn(C)nc2C(C)O)c1` (stereo partly drawn) [Example 159, 1-(1-methyl-4-(2-methyl-4-(((1S,2S)-2-(4-methylpyridin-2-yl)cyclopropyl)methoxy)pyrimidin-5-yl)-1H-pyrazol-3-yl)ethanol], the Ki turned out to be 1.47 nM.

With `Cc1ccnc([C@H]2C[C@@H]2COc2nc(C)ncc2-c2cn(C)nc2C(C)O)c1` (stereo partly drawn) [Example 160, 1-(1-methyl-4-(2-methyl-4-(((1S,2S)-2-(4-methylpyridin-2-yl)cyclopropyl)methoxy)pyrimidin-5-yl)-1H-pyrazol-3-yl)ethanol], the Ki amounted to 2.92 nM.

Consider `Cc1cccc([C@H]2C[C@@H]2COc2nc(C)ncc2-c2cn(C)nc2C(C)O)n1` (stereo partly drawn) [Example 161, 1-(1-methyl-4-(2-methyl-4-(((1S,2S)-2-(6-methylpyridin-2-yl)cyclopropyl)methoxy)pyrimidin-5-yl)-1H-pyrazol-3-yl)ethanol], for which the Ki came out at 2.28 nM.

`CCc1ccc([C@H]2C[C@@H]2COc2nc(C)ncc2-c2cn(C)nc2C(C)O)nc1` (stereo partly drawn) [Example 162, 1-(4-(4-(((1S,2S)-2-(5-ethylpyridin-2-yl)cyclopropyl)methoxy)-2-methylpyrimidin-5-yl)-1-methyl-1H-pyrazol-3-yl)ethanol]: the Ki turned out to be 0.13 nM.
